Experimental data from ChEMBL document CHEMBL1130504, “Synthesis and biological activity of artificial analogs of mycalamide A” (Bioorg Med Chem Lett, 1997).
In brackets after ≈: the same amount, converted by molar mass.

Columns and labels:
HEL [1] = experiment: In vitro inhibitory concentration for antiviral activity was tested against HEL cells; assay type: functional, cell-based; details: Homo sapiens
HEL [2] = experiment: (§1) In vitro minimum inhibitory concentration for antiviral activity was tested against Varicella-Zoster virus(VZV); assay type: functional; details: Homo sapiens
HeLa = experiment: In vitro inhibitory concentration for cytotoxic activity was tested against HeLa cells; assay type: functional, cell-based; details: Homo sapiens
Vero [3] = experiment: In vitro inhibitory concentration for antiviral activity was tested against vero cells; assay type: functional, cell-based; details: Chlorocebus sabaeus
Vero [4] = experiment: (§2) In vitro minimum inhibitory concentration for antiviral activity was tested against Herpes simplex virus type 1(HSV-1); assay type: functional; details: Chlorocebus sabaeus
Human alphaherpesvirus 1 = experiment: as §2; assay type: functional
Human alphaherpesvirus 3 = experiment: as §1; assay type: functional

| Structure (SMILES) | IC50 (HEL [1]) [µg/mL] | MIC (HEL [2]) [µg/mL] | IC50 (HeLa) [µg/mL] | IC50 (Vero [3]) [µg/mL] | MIC (Vero [4]) [µg/mL] | MIC (Human alphaherpesvirus 1) [µg/mL] | MIC (Human alphaherpesvirus 3) [µg/mL] |
| --- | --- | --- | --- | --- | --- | --- | --- |
| C=C1C[C@](OC)([C@@H](O)C(=O)N[C@H]2OCO[C@H]3[C@@H]2O[C@H](C[C@H](O)CO)C(C)(C)[C@@H]3OC)O[C@H](C)[C@@H]1C | 12.5 (≈ 24.8 µM) | < 0.391 | > 10 | 12.5 (≈ 24.8 µM) | 50 (≈ 99.3 µM) |  |  |
| CO[C@@H]1[C@H]2OCO[C@@H](NC(=O)[C@@H](O)[C@@]3(OC)CCC[C@@H](C)O3)[C@H]2O[C@H](C[C@H](O)CO)C1(C)C | > 50 | 3.12 (≈ 6.54 µM) | > 10 | > 50 | 50 (≈ 105 µM) |  |  |
| Nc1nc2c(ncn2COCCO)c(=O)[nH]1 [ACYCLOVIR] | > 50 |  |  | 50 (≈ 222 µM) |  | 1.56 (≈ 6.94 µM) |  |
| C=C1C[C@](OC)([C@H](O)C(=O)N[C@H]2OCO[C@H]3[C@@H]2O[C@H](C[C@H](O)CO)C(C)(C)[C@@H]3OC)O[C@H](C)[C@@H]1C [MYCALAMIDE A] | < 0.391 | < 0.391 | < 0.03 | < 0.391 | < 0.391 |  |  |
| C=C1C[C@](OC)([C@H](O)C(=O)N[C@@H]2OCO[C@@H]3[C@@H](OC)[C@@H]4OC(C)(C)OC[C@H]4O[C@@H]32)O[C@H](C)[C@@H]1C | > 50 |  | 10 (≈ 20.5 µM) | 50 (≈ 103 µM) |  | 50 (≈ 103 µM) | 12.5 (≈ 25.6 µM) |
| C=C1C[C@](OC)([C@H](O)C(=O)N[C@@H]2OCO[C@H]3[C@@H]2O[C@H](C[C@H](O)CO)C(C)(C)[C@@H]3OC)O[C@H](C)[C@@H]1C | 12.5 (≈ 24.8 µM) | 1.56 (≈ 3.1 µM) | 3 (≈ 5.96 µM) | 12.5 (≈ 24.8 µM) | 12.5 (≈ 24.8 µM) |  |  |
| CO[C@@H]1[C@H]2OCO[C@H](NC(=O)[C@@H](O)[C@@]3(OC)CCC[C@@H](C)O3)[C@H]2O[C@H](C[C@H](O)CO)C1(C)C | 1.56 (≈ 3.27 µM) | < 0.391 | 0.03 (≈ 0.0628 µM) | 0.391 (≈ 0.819 µM) | 3.12 (≈ 6.54 µM) |  |  |
| C=C1C[C@](OC)([C@H](O)C(=O)N[C@@H]2OCO[C@@H]3[C@@H](OC)[C@H](O)[C@@H](CO)O[C@@H]32)O[C@H](C)[C@@H]1C | > 50 | 25 (≈ 55.9 µM) | > 10 | > 50 | > 50 |  |  |
| O=c1[nH]cc(F)c(=O)[nH]1 [FLUOROURACIL] |  |  | 3 (≈ 23.1 µM) |  |  |  |  |
| C=C1C[C@@H](C)O[C@@](OC)([C@H](O)C(=O)N[C@@H]2OCO[C@H]3[C@@H]2O[C@H](C[C@H](O)CO)C(C)(C)[C@@H]3OC)C1 | > 50 | 1.56 (≈ 3.19 µM) | 3 (≈ 6.13 µM) | 50 (≈ 102 µM) | 50 (≈ 102 µM) |  |  |
| C=C1C[C@](OC)([C@@H](O)C(=O)N[C@@H]2OCO[C@H]3[C@@H]2O[C@H](C[C@H](O)CO)C(C)(C)[C@@H]3OC)O[C@H](C)[C@@H]1C | > 50 | 12.5 (≈ 24.8 µM) | > 10 | > 50 | 50 (≈ 99.3 µM) |  |  |
| C=C1C[C@@H](C)O[C@@](OC)([C@H](O)C(=O)N[C@H]2OCO[C@H]3[C@@H]2O[C@H](C[C@H](O)CO)C(C)(C)[C@@H]3OC)C1 | < 0.391 | < 0.391 | < 0.03 | < 0.391 | < 0.391 |  |  |
| C=C1C[C@](OC)([C@H](O)C(=O)N[C@H]2OCO[C@@H]3[C@@H](OC)[C@@H]4OC(C)(C)OC[C@H]4O[C@@H]32)O[C@H](C)[C@@H]1C | > 50 |  | 3 (≈ 6.15 µM) | > 50 |  | 50 (≈ 103 µM) | 12.5 (≈ 25.6 µM) |
| C=C1C[C@](OC)([C@H](O)C(=O)N[C@H]2OCO[C@@H]3[C@@H](OC)[C@H](O)[C@@H](CO)O[C@@H]32)O[C@H](C)[C@@H]1C | > 50 | 3.12 (≈ 6.98 µM) | 1 (≈ 2.23 µM) | 25 (≈ 55.9 µM) | 25 (≈ 55.9 µM) |  |  |
